Data from US20210238172.
Like-named read-outs stand apart in the source and are kept apart here.

Conditions: amide bond, HATU/DIEA, NMP, 2 steps

| Substance | ring closure, yield after HPLC (21-membered ring, 92.4 mM, 80.0 °C) [%] | ring closure, yield after HPLC (22-membered ring, 68.9 mM, 140.0 °C) [%] |
| --- | --- | --- |
| 8-Ethyl-10,18-dimethyl-7,20-dioxo-6,7,8,11,14,15,20,21,28,29,30,31-dodecahydrobenzo[4,5]imidazo[1,2-a]benzo[4,5]imidazo[2,1-p]dipyrazolo[5,1-e:4′,3′-l][1,3,6,15,17]pentaazacyclohenicosine-3,24-dicarboxamide | 1.7 |  |
| 8-ethyl-10,18,30-trimethyl-7,20-dioxo-7,8,11,12,13,14,15,20,21,28,29,30,31,32-tetradecahydro-benzo[4,5]imidazo[2,1-b]benzo[4,5]imidazo[1,2-i]dipyrazolo[5,1-m:4′,3′-t][1,3,6,9,11,14]hexaazacyclodocosine-3,24-dicarboxamide |  | 4.56 |
